The values below come from patent US20130231393A1, “USE OF SQUARAMIDE IN THE PREVENTION AND/OR TREATMENT OF ROSACEA” (GALDERMA RESEARCH & DEVELOPMENT, priority 2010, published 2013).

For one experiment, the target named is T1, CXCR2 (Homo sapiens, UniProt P25025).
T1 sequence (P25025 1-360): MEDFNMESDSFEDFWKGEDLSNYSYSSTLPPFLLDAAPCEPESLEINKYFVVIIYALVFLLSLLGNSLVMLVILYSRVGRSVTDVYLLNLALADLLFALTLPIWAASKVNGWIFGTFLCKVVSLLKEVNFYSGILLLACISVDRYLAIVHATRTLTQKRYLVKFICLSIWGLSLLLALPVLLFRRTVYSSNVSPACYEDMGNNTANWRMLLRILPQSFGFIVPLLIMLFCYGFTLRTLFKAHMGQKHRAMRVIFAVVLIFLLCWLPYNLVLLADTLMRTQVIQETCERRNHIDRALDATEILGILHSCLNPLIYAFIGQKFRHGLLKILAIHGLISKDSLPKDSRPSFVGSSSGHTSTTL
The experiment can be described thus: β-arrestin2 recruitment assay, antagonism of CXCL8 stimulation (PathHunter HEK293 hCXCR2 b-arrestin). The class given is cell-based. The note with it: PathHunter HEK293 hCXCR2 b-arrestin cells, CXCL8-stimulated. As to the method:
(§1) Antagonism of CXCL8-Stimulated β-Arrestin2 Recruitment. […] To monitor direct interaction of CXCR2 or CXCR1 with β-arrestin2, we used a β-arrestin2 recruitment assay for CXCR2 or CXCR1 based on enzyme complementation of β-galactosidase (Olson and Eglen, 2007), as established by DiscoveRx Corporation. […] All CXCR2-antagonists are tested in dose-depedant manner (firsty dose 10 μM).
(§2) PathHunter HEK293-hCXCR2 b-arrestin cells or U2OS hCXCR1 b-arrestin cells (both from DiscoveRx Corporation) were plated out overnight at 10,000 cells/well (384-well format) in 50 μl of Opti MEM I+1% bovine serum albumin. Cells were treated with CXR2 antogonist or vehicule (Opti MEM I) and CXCL-8 at the same time for 90 min.; thereafter, 25 μl of PathHunter Detection Reagents (DiscoveRx Corporation) was added. After an incubation of 60 min at room temperature, β-galactosidase-induced luminescence upon β-arrestin-CXCR1/2 interaction was measured in an TopCount Reader (Perkin Elmer). Functional data were evaluated by a nonlinear curve fitting procedure using XLFit4 (IDBS).

Another experiment addresses T2, CXCR1 (Homo sapiens, UniProt P25024).
T2 construct: β-galactosidase enzyme-complementation fragment (PathHunter system); host or cells: U2OS (U2OS hCXCR1 b-arrestin)
T2 sequence (P25024 1-350): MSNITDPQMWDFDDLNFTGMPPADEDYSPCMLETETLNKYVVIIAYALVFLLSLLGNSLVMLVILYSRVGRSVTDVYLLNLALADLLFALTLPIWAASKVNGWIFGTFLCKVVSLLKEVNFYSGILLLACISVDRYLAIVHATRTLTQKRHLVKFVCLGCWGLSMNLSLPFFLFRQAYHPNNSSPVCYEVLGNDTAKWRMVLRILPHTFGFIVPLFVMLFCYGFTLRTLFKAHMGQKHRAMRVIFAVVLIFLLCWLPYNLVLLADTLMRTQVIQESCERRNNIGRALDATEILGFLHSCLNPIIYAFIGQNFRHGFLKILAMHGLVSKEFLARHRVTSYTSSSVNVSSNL
Put plainly: β-arrestin2 recruitment assay, antagonism of CXCL8 stimulation (U2OS hCXCR1 b-arrestin). The following applies: U2OS hCXCR1 b-arrestin cells, CXCL8-stimulated. The class given is cell-based. On the procedure: as §1, §2

In the next experiment the test system is hairless SKH1 mice. Put plainly: RTX-induced vasodilation in a neurogenic skin inflammation model (laser Doppler perfusion imaging). The class given is in vivo. The note with it: capsazepine at 5%, topical; RTX 0.03% on the back of SKH1 mice. As to the method: The animal model of neurogenic skin inflammation was induced by a unique topical application of resiniferatoxin (RTX), 0.03% on the back of hairless SKH1 mice. RTX is an ultrapotent capsaicin analog and RTX exposure evokes neuropeptides release. Most of these neuropeptides have vasodilatory properties and one component of RTX-induced neurogenic inflammation is the dermal vasodilation. In the present RTX-model, the objective assessment of the skin vasodilation was evaluated by laser Doppler perfusion imaging.
Material and Method: • Measurement of RTX-Induced Vasodilation
Adult female hairless SKH1 mice aged 7-9 weeks are obtained from Charles River (France). Anaesthesia with ketamine/xylazine is performed 10 minutes before treatment and body temperature is maintained at 35° C.-37° C. using an automated heating pad. A skin area of 1.8×1.5 cm on the back of the mouse is divided in two regions of interest. One region is treated with the vehicle, the other one with RTX 0.03%. […] The skin blood perfusion is evaluated every 2 minutes on the back of the mouse with a Laser Doppler perfusion imaging PIM3 (Perimed, France). […] Images are analysed and the yield of two parameters, the erythematous surface and the blood perfusion intensity ratio, is calculated as a relative area of vasodilation (mm^2). […] Results are expressed as mean±SEM. […]

As to `CC[C@@H](Nc1c(Nc2cccc(C(=O)N(C)C)c2O)c(=O)c1=O)c1ccccc1` [3-[3,4-Dioxo-2-((R)-1-phenyl-propylamino)-cyclobut-1-enylamino]-2-hydroxy-N,N-dimethyl-benzamide], the IC50 was determined as 7 nM at CXCR2 and 148 nM against CXCR1. On to `Oc1cc2c(cc1O)CN(C(=S)NCCc1ccc(Cl)cc1)CCC2` [capsazepine], for which the “relative area of vasodilation, AUC decreased by” value in the experiment on hairless SKH1 mice was 13%.
